Experimental data: ChEMBL document CHEMBL1201862, “PubChem BioAssay data set” (2004)
Activity calls are given as the source filed them.

How the values were obtained:
[1] = M. tuberculosis growth inhibition in 7H9, dose response, 7H9 media, purified and synthesized samples, set 3 (AID 504646); type: functional
[2] = StAR promoter reporter inhibition counter-screen, dose response, counter-screen for LRH-1 inverse agonist project, cell-based, luminescence, luciferase reporter (AID 651969); type: functional
Steroidogenic factor 1 = Steroidogenic factor 1 (Homo sapiens, UniProt Q13285); test: Counterscreen for inverse agonists of the liver receptor homolog-1 (LRH-1; NR5A2): Luminescence-based cell-based high throughput dose response assay to identify inverse agonists of the Steroidogenic Factor 1 Nuclear Receptor (SF1; NR5A1).; type: functional
Steroidogenic factor 1, sequence (Q13285 whole entry): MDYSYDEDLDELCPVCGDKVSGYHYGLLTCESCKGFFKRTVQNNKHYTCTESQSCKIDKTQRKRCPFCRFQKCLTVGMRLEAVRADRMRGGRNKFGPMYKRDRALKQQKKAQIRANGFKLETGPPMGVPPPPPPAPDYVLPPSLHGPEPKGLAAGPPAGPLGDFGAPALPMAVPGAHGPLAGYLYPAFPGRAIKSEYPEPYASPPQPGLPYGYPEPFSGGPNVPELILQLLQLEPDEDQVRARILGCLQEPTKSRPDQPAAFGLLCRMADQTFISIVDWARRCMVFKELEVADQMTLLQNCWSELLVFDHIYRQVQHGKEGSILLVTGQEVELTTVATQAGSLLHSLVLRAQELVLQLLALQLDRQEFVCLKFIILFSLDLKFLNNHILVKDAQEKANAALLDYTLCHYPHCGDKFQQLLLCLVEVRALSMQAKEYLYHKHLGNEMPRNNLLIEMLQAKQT

[3] = target: Nuclear receptor subfamily 5 group A member 2 (Homo sapiens, UniProt O00482); type: functional, cell-based;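 note: HEK293T cells transfected with LRH-1 and a StAR promoter luciferase reporter; potency for inhibitors that lower LRH-1 driven reporter light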
Nuclear receptor subfamily 5 group A member 2, sequence (O00482 whole entry, the tested form may be a part): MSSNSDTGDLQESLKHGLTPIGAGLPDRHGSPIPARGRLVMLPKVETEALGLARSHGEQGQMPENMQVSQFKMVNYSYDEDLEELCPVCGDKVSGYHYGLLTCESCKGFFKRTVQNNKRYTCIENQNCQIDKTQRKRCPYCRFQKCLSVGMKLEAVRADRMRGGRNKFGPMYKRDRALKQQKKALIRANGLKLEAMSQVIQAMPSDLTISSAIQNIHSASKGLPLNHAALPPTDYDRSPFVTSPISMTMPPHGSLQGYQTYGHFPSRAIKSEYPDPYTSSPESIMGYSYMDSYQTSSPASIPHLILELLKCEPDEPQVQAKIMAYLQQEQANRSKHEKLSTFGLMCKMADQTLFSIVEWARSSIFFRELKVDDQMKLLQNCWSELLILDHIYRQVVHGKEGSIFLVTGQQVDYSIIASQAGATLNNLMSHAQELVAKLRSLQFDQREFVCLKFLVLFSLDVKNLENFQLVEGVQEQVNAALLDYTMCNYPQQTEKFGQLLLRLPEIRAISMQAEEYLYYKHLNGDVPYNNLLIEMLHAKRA

[4] = target: T1, Sentrin-specific protease 1 (Homo sapiens, UniProt Q9P0U3); test: Dose response confirmation of small molecule inhibitors of the catalytic domain of the SUMO protease, SENP1 in a FRET assay.; type: functional; conditions: read-out: IC50_Mean
T1 sequence (Q9P0U3 whole entry, the tested form may be a part): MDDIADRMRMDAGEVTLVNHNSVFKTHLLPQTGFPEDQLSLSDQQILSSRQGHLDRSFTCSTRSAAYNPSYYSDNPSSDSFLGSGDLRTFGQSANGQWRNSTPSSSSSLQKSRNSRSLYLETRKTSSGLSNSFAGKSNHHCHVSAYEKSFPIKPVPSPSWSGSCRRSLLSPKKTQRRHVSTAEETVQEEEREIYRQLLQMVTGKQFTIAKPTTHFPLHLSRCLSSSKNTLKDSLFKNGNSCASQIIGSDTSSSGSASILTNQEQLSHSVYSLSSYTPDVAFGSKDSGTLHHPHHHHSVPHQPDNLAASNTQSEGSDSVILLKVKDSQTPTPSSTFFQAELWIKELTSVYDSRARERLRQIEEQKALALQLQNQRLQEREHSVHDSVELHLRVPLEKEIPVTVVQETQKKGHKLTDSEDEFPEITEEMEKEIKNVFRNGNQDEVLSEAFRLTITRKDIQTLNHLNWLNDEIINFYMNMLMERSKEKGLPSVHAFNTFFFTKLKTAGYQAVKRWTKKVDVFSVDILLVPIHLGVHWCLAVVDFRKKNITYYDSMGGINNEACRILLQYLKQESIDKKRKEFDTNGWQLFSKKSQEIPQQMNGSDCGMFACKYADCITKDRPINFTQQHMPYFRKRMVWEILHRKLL

[5] = target: T1, Sentrin-specific protease 1; test: potency of human SENP1 inhibitors, dose response, biochemical, kinetic FRET (AID 651697); type: functional; conditions: read-out: IC50_Mean
[6] = target: Photoreceptor-specific nuclear receptor (Homo sapiens, UniProt Q9Y5X4); type: functional, cell-based;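 note: CHO-S cells with Gal4-NCOR and VP16-NR2E3 two-hybrid luciferase reporter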
Photoreceptor-specific nuclear receptor, sequence (Q9Y5X4 whole entry, the tested form may be a part): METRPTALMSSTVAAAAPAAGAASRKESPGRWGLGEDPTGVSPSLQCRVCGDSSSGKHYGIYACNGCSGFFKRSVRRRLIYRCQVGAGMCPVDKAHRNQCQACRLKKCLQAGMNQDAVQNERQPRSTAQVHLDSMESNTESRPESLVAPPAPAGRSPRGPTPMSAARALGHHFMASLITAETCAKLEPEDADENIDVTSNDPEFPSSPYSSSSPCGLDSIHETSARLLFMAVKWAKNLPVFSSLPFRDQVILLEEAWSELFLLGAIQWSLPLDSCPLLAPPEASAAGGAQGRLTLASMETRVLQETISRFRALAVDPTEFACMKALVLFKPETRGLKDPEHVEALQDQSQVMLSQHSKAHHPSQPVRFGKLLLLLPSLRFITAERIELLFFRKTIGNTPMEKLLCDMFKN

[7] = target: T2, Eukaryotic translation initiation factor 2-alpha kinase 3 (Homo sapiens, UniProt Q9NZJ5); test: Counterscreen assay for PERK inhibitors: Dose response cell-based high throughput screening assay to measure inhibition of PERK at 6 hours. [Related pubchem assays: 1522, 1416 ]; type: functional
T2 sequence (Q9NZJ5 whole entry): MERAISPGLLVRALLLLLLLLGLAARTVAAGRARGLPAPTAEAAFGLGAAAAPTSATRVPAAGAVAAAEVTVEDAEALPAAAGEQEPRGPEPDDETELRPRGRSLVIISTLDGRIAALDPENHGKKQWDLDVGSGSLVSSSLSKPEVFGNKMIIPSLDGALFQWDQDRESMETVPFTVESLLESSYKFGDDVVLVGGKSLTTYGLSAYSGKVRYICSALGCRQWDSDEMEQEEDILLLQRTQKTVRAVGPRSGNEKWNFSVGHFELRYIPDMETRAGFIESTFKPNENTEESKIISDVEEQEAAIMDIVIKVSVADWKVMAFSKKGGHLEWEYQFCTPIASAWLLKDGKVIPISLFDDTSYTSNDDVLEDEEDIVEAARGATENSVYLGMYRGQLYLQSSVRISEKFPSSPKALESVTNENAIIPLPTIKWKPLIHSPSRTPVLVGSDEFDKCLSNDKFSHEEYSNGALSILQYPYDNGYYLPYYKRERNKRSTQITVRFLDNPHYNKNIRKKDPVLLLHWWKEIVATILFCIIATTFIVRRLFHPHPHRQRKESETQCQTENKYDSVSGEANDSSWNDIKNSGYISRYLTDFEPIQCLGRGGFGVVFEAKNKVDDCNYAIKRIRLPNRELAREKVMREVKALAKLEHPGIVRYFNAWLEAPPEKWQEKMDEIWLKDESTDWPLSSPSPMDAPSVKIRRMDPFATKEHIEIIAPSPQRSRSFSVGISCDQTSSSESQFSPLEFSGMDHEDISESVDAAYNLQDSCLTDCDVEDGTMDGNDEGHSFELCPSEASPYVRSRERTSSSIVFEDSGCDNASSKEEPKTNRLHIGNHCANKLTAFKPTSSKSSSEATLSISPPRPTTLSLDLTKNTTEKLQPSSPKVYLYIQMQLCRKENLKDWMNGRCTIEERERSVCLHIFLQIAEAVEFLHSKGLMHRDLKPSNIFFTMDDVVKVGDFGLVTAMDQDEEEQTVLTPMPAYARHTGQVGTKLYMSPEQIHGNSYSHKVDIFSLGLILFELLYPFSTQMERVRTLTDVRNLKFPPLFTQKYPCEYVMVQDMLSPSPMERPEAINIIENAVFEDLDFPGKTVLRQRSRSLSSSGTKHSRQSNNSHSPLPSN

[8] = target: T2, Eukaryotic translation initiation factor 2-alpha kinase 3; test: Dose response cell-based high-throughput screening assay to measure PERK inhibition. [Related pubchem assays: 1416 ]; type: functional
INS1 = test: beta cell apoptosis inhibitors, cytokine rescue, dose response, luminescence, retest (AID 449756); type: functional, cell-based; conditions: Rattus norvegicus;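 note: cell death triggered by IL-1 beta plus TNF-alpha plus IFN-gamma mixture; protective hits raise ATP signal compared with cytokine alone wells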
[9] = Vero cell cytotoxicity, cytotoxicity control for M. tuberculosis inhibitor project, purified and synthesized samples, set 3 (AID 504684); type: functional
cells = type: functional
[10] = target: Mitochondrial peptide methionine sulfoxide reductase (Bos taurus, UniProt P54149); test: Absorbance-based biochemical high throughput dose response assay for activators of Methionine sulfoxide reductase A (MsrA).; type: functional
Mitochondrial peptide methionine sulfoxide reductase, sequence (P54149 whole entry): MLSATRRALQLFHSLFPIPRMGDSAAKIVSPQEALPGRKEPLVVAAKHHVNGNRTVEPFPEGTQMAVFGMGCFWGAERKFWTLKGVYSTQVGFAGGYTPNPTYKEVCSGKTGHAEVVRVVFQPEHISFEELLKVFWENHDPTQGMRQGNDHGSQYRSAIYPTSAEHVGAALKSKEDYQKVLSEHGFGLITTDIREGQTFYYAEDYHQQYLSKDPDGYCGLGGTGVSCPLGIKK

Melanocortin receptor 4 = Melanocortin receptor 4 (Homo sapiens, UniProt P32245); type: functional, cell-based;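 note: Cell-based assay with luminescence read-out, confirmatory dose-response testing for agonist activity of biased ligands at MC4R; human U2OS cells with tagged receptor and beta-arrestin; potency of agonists that increase receptor coupling to beta-arrestin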
Melanocortin receptor 4, sequence (P32245 whole entry): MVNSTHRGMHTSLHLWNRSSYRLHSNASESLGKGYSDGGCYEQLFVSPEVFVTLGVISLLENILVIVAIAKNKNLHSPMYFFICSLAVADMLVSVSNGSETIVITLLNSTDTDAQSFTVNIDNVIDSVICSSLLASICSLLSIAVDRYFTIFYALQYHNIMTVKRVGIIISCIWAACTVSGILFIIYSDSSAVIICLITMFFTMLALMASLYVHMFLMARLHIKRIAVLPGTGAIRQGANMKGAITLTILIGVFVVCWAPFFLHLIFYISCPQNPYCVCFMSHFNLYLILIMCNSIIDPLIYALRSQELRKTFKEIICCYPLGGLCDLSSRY

[11] = target: T3, DNA repair protein RAD52 homolog (Homo sapiens, UniProt P43351); type: functional, biochemical
T3 sequence (P43351 whole entry): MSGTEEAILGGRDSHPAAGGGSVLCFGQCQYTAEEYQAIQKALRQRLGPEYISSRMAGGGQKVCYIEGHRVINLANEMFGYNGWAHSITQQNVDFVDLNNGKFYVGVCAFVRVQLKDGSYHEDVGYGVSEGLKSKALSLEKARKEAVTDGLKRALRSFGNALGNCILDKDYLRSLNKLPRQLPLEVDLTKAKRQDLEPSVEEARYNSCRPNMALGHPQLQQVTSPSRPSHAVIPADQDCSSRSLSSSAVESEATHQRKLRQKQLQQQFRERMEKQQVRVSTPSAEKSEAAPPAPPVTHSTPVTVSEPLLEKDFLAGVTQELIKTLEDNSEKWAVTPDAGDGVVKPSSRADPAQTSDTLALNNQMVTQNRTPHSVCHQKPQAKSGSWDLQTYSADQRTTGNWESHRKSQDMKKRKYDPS

[12] = target: DNA repair and recombination protein RAD54-like (Homo sapiens, UniProt Q92698); test: inhibitors of human RAD54 branch migration, confirmation, biochemical, fluorescence, cherry-picked samples, dose series (AID 651657); type: functional
DNA repair and recombination protein RAD54-like, sequence (Q92698 whole entry): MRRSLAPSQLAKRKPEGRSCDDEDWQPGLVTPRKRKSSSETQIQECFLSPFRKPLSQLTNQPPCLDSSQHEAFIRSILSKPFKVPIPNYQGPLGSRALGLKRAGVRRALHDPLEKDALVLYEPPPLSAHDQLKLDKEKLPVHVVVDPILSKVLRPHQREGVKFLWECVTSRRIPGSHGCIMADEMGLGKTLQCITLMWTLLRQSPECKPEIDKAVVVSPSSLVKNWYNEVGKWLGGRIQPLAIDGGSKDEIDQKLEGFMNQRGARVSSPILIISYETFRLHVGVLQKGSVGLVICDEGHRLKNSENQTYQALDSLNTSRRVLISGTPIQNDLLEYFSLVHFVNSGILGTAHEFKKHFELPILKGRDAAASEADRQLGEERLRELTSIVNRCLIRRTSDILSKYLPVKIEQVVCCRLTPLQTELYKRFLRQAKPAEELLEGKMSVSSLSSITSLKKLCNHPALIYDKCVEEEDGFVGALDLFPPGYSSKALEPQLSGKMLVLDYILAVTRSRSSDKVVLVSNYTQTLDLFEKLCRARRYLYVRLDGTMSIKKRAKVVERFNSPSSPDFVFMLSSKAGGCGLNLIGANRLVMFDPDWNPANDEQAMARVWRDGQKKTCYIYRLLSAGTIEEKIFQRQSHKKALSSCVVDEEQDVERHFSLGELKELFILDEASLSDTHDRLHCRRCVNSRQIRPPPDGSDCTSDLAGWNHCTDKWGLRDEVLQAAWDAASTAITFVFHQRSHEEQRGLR

[13] = target: T4, Apoptotic protease-activating factor 1 (Homo sapiens, UniProt O14727); test: SAR analysis of small molecule Activators of Apaf-1 in a Fluorescent assay.; type: functional; conditions: read-out: EC50_Mean;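 note: caspase-3 cleavage of fluorogenic Rh110 DEVD substrate downstream of apoptosome activation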
T4 sequence (O14727 whole entry): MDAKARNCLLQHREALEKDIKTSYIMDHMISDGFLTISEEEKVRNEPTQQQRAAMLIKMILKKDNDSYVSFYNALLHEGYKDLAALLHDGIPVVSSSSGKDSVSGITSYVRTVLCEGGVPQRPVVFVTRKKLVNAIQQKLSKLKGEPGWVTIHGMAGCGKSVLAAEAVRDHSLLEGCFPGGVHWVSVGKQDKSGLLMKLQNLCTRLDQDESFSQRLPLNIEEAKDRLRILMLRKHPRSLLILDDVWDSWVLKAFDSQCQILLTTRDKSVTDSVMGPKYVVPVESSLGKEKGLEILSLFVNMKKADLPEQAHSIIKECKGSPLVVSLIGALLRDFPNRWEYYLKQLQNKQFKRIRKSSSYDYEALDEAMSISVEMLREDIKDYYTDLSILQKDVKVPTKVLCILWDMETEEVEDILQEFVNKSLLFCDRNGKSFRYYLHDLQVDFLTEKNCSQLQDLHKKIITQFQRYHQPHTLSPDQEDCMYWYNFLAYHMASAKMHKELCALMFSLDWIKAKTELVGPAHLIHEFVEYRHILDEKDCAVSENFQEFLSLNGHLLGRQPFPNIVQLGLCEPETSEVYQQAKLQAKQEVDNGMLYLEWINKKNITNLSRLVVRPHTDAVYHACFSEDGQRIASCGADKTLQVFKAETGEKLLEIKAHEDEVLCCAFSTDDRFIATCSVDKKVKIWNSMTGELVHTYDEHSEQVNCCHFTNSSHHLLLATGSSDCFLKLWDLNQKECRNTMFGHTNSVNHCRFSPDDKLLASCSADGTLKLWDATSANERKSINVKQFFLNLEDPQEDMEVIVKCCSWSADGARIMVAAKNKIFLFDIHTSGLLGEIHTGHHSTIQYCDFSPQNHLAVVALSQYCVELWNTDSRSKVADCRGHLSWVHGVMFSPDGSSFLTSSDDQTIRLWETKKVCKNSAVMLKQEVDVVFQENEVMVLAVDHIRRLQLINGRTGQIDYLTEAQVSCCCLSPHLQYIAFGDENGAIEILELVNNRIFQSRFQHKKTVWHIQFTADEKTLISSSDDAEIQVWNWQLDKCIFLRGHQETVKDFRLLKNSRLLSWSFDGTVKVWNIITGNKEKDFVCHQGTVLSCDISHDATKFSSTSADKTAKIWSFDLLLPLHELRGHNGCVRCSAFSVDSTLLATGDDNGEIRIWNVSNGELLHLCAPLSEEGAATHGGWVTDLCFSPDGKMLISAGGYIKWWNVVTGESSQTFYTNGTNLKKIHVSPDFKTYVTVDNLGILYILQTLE

[14] = inhibitors of HIV Env-driven cell fusion, dose response, cherry-pick (AID 652057); type: functional, cell-based
[15] = ZM109 Env clade C HIV-1 fusion inhibitors, dose response, HeLa effector, CEM target cells, luciferase, cherry-pick (AID 652058); type: functional, cell-based
[16] = inhibitors of clade B AD8 Env fusion, dose response, cell-based, cherry-pick (AID 652062); type: functional;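 note: luciferase signal from cell-cell fusion driven by HIV-1 clade B AD8 Env; potency is for inhibitors of fusion seen as a drop in luminescence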
Protein skinhead-1 = target: T5, Protein skinhead-1 (Caenorhabditis elegans, UniProt P34707); type: functional
T5 sequence (P34707 whole entry): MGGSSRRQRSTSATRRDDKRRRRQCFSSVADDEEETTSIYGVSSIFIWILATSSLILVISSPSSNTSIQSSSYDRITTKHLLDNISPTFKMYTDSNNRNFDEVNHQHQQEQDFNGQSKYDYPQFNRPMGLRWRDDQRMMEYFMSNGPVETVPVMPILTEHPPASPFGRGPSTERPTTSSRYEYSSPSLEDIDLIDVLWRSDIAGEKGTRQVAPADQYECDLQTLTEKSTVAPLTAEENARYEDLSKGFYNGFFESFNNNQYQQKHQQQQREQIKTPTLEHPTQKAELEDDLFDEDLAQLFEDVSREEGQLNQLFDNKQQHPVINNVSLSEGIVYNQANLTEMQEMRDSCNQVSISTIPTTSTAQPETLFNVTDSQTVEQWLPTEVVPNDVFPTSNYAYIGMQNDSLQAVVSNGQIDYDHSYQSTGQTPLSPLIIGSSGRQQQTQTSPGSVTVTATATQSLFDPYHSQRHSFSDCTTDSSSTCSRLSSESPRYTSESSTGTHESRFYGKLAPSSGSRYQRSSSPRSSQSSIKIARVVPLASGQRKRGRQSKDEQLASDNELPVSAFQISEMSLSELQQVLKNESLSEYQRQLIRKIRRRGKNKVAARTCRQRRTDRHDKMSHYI

Interleukin-8 [17] = target: T6, Interleukin-8 (Homo sapiens, UniProt P10145); test: Dose Response confirmation of uHTS small molecule hits for cystic fibrosis induced NFkb Inhibitors in a PAF-induced IL8 counterscreen.; type: functional; conditions: read-out: IC50_Mean
T6 sequence (P10145 whole entry): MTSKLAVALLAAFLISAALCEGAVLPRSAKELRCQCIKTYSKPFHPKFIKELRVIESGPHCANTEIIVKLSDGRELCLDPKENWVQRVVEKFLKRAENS

Interleukin-8 [18] = target: T6, Interleukin-8; test: Dose Response confirmation of uHTS small molecule hits for cystic fibrosis induced NFkb Inhibitors in a TNFa-induced IL8 counterscreen.; type: functional; conditions: read-out: IC50_Mean
[19] = off-target signal loss in HeLa-CEM21 co-culture – HeLa F-luc CTL cells, cherry-picked, counter-screen for HIV-1 Env fusion inhibitor project, dose response (AID 652040); type: functional, cell-based;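 note: potency for signal decrease marking cytotoxic or nonspecific inhibition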
[20] = target: Palmitoyl-protein thioesterase ABHD10, mitochondrial (Mus musculus, UniProt Q6PE15); test: Late stage assay provider results from the probe development effort to identify inhibitors of PME-1: fluorescence-based dose response biochemical gel-based competitive Activity-Based Protein Profiling (ABPP) inhibition of ABHD10 Set 1.; type: functional
Palmitoyl-protein thioesterase ABHD10, mitochondrial, sequence (Q6PE15 whole entry): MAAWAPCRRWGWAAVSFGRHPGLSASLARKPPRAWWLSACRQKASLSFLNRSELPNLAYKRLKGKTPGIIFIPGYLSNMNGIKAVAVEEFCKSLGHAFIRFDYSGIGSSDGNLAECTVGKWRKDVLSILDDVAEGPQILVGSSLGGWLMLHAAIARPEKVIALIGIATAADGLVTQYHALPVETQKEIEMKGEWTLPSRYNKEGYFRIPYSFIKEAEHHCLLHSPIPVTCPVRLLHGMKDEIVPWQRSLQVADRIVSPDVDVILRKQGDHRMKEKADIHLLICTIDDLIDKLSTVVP

[21] = target: T7, ATP-dependent translocase ABCB1 (Homo sapiens, UniProt P08183); test: ABCB1 efflux inhibitor potency, dose response, Jurkat-DNR cells, JC-1, flow cytometry, set 2 (AID 504569); type: functional; conditions: read-out: EC50_MICROM_;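 note: potency of pump inhibitors that raise cellular JC-1 green fluorescence up to the nicardipine level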
T7 sequence (P08183 whole entry): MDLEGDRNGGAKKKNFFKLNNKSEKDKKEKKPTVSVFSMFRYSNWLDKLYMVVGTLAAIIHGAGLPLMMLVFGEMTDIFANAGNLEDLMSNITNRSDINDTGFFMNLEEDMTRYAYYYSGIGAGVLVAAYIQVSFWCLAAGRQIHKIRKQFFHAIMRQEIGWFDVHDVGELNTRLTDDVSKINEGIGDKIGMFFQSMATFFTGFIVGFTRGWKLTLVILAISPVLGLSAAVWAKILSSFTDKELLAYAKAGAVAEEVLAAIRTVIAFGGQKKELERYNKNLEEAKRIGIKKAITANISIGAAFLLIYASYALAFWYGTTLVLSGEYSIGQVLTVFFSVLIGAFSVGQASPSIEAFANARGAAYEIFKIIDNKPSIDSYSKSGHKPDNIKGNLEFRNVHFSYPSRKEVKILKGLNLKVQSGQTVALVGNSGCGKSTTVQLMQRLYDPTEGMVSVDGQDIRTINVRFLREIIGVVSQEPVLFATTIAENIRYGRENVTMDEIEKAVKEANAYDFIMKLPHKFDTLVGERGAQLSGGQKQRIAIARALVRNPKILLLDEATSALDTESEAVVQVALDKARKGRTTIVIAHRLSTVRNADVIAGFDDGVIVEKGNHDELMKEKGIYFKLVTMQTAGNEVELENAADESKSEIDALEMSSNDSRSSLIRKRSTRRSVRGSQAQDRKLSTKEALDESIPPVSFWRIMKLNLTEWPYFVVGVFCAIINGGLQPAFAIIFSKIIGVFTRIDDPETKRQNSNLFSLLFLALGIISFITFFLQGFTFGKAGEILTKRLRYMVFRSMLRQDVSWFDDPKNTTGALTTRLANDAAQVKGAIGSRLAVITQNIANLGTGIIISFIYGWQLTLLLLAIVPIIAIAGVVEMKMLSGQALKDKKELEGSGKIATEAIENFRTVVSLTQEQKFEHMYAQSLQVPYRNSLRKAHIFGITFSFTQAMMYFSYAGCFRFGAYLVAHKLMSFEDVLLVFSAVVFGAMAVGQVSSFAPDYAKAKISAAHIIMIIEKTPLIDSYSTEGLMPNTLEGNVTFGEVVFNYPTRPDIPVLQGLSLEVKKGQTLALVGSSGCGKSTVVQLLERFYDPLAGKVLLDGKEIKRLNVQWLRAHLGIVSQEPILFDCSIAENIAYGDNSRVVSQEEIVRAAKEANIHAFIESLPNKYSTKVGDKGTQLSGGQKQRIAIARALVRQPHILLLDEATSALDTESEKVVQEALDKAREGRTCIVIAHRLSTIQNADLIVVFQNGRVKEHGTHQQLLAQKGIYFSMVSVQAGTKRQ

[22] = target: T7, ATP-dependent translocase ABCB1; test: ABCG2 efflux pump inhibitor potency, dose response, Ig-MXP3 cells, JC-1, flow cytometry, set 2 (AID 504566); type: functional; conditions: read-out: EC50_MICROM_;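 note: flow cytometry median green fluorescence of retained JC-1 dye; potency of efflux pump inhibition measured as rising substrate retention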

## O=C(NCC1COc2ccccc2O1)C1CCC(CNc2c(N3CCCCC3)c(=O)c2=O)CC1 (configuration not stated)
[1]
  IC50: > 25 µM (active)

## COc1ccc(NC(=O)CSc2nnc3ccc(-c4cccnc4)nn23)cc1OC
[2]
  IC50: 35.9 µM (inactive)
Steroidogenic factor 1
  IC50: 35.9 µM (inactive)
[3]
  IC50: 35.9 µM (inactive)

## N#C/C(=C\c1cc2ccccc2nc1N1CCCCC1)C(N)=O
[4]
  IC50: 25.8 µM (inactive)
[5]
  IC50: 53.2 µM (inactive)

## CCC1(OC(=O)CN)C(=O)OCc2c1cc1n(c2=O)Cc2cc3ccccc3nc2-1 (configuration not stated)
[6]
  IC50: 1.23 µM (active)
[7]
  EC50: > 55.7 µM (not active)
[8]
  EC50: > 55.7 µM (not active)
INS1
  AC50: 2.25 µM (active)

## COC(=O)CCc1nc2c(C#N)c(-c3ccc(Cl)cc3)ccn2n1
[9]
  CC50: > 100 µM (active)
cells
  IC50: 5.43 µM (active)

## CC(C)[C@H](NC(=O)c1ccccc1)C(=O)OCc1nc2scc(-c3ccccc3)c2c(=O)[nH]1
[10]
  EC50: > 104 µM (inactive)

## CC(C)CC(N)c1csc(Nc2ccc(C(F)(F)F)cn2)n1 (configuration not stated)
Melanocortin receptor 4
  EC50: > 89.2 µM (inactive)

## CN(C)CCNC(=O)c1cccc(-c2cnc3c(NC=O)cc(-c4cccc(F)c4)cn23)c1
[11]
  AC50: 5.99 µM (active)
[12]
  AC50: 22.4 µM (active)

## CCC(C)(C)c1ccc(O)c(N2CC(C(=O)O)CC2=O)c1 (configuration not stated)
[13]
  EC50: > 100 µM (inactive)

## CC1(Cc2ccc(Cl)cc2)C(=O)Nc2ccc(-c3cccnc3)cc21 (configuration not stated)
[14]
  AC50: 1.96 µM (active)
[15]
  AC50: 4.18 µM (active)
[16]
  AC50: 3.3 µM (active)
Protein skinhead-1
  IC50: 19.5 µM (active)
Interleukin-8 [17]
  IC50: 15.6 µM (inactive)
Interleukin-8 [18]
  IC50: 41.1 µM (inactive)
[19]
  AC50: 6.69 µM (active)

## CC[C@@]1(c2ccc(Cl)cc2)C(=O)N(C(=O)OC)N1C(=O)OC
[20]
  IC50: 0.103 µM (active)

## Cc1ccc(-c2cc3nc(-c4ccccc4)cc(N4CCN(C(=O)c5ccoc5)CC4)n3n2)cc1
[21]
  EC50: 0.66 µM (active)
[22]
  EC50: 0.81 µM (active)
